In patent US12385013B2, “Differentiation of pancreatic endocrine cells” (Vertex Pharmaceuticals Incorporated, priority 2020, dated 2025):

What was measured:
[1] = system: cells differentiated from human stem cells; experiment: Yield of total cells; format: cell-based
Procedure: (§1) In another experiment, the effect of two different PKC activators on enterochromaffin cells and alpha cells was examined. In this experiment, three differentiation conditions were examined and compared: Version A protocol; Version A with PDBU applied at 0.5 μM on days S4d5, S5d1, and S5d2 (VA+PDBU); and Version A with ((2S,5S)-(E,E)-8-(5-(4-(Trifluoromethyl)phenyl)-2,4-pentadienoylamino)benzolactam) at 0.1 μM on days S4d5, S5d1, and S5d2 (VA+TPPB). FIG. 11B summarizes the percentages of NKX6.1-positive/ISL-negative cells and ISL1-positive/NKX6.1-negative cells at S5c generated via the different protocols, as measured by flow cytometry (exemplified in FIG. 11A).

[2] = system: Stage 6 cells differentiated from human stem cells; experiment: Flow cytometry of Stage 6 endocrine cell populations (C-peptide/VMAT1, GCG/SST); format: cell-based
Procedure: (§2) Both Version A and Version B protocols are 6-stage stepwise protocols that share similar reagents and treatment timing. With Version A protocols, stem cells were treated with reagents in the following consecutive orders during the first five stages: Stage 1 (S1), Activin-A for 3 days and also CHIR99021 for the first 24 hr; Stage 2 (S2), KGF for 3 days; Stage 3 (S3), KGF, PDBU, Sant-1, retinoic acid (RA), Activin A, and Thiazovivin for 2 days, and also DMH-1 for the first day; Stage 4 (S4), KGF, Sant-1, Thiazovivin, Activin A, and RA for 6 days; Stage 5 (S5), XXI, Alk5i, GC-1, LDN-193189, Thiazovivin, Staurosporine, and DZNEP for 7 days, and also RA, Sant-1, and Betacellulin for the first 2 days. In Version B protocols, one difference from Version A protocols is that the cells were supplemented with PDBU from day 5 of Stage 4 (S4d5) to day 2 of Stage 5 (S5d2). In one experiment, 500 nM of PDBU was used to treat the cells during S4d5 to S5d2.
In one experiment, four different exemplary Stage 6 treatment paradigms were also tested at S6 in combination with the first five stages of Version A or Version B protocols. Briefly, i) with S6-a paradigm, S5c cells were cultured in DMEM/F12 medium containing 1% HSA for 7-14 days; ii) with S6-b paradigm, S5c cells were cultured in MCDB131 medium containing 0.05% HSA and the following supplements (per 1 L MCDB131): 0.44 g Glucose, 1.23 g NaHCO3, 0.044 g Vitamin C, 10 ml Glutamax, and 5 ml ITS-x; iii) with S6-c paradigm, S5c cells were cultured in MCDB131 medium containing 0.05% HSA and vitamin C for 7-14 days, during which the cells were treated with 10 μM Alk5i, 1 μM GC-1, 100 nM LDN-193189, 2.5 μM Thiazovivin, 3 nM SSP, and 100 nM DZNEP for the first four days; iv) with S6-d paradigm, S5c cells were cultured in MCDB131 medium (no glutamine base media) containing 0.05% HSA, ITS-X, vitamin C, and 4 mM Gln, as well as […] Alk5i, 1 μM GC-1, 100 nM LDN-193189, 2.5 μM Thiazovivin, 3 nM SSP, and 100 nM DZNEP, for four days, followed by culturing in MCDB131 medium (no glutamine base media) containing 0.05% HSA, ITS-X, vitamin C, and 4 mM Gln with no additional factors for additional 3-10 days.
As shown in the figure, with Version A protocols, the percentage of C-peptide-positive, VMAT1-negative cells on S6d9 or S6d14 were all around 35%, except for VA/S6-a and VA/S6-d on S6d9 (both around 40%), whereas with Version B protocols, the percentage of C-peptide-positive, VMAT1-negative cells was from 45% to 55% on S6d9, and around 45% on S6d14.

[3] = system: S5c cells differentiated from human stem cells; experiment: Flow cytometry of NKX6.1/ISL1 at S5c; format: cell-based; conditions: for effect on alpha cells (ISL1-positive/NKX6.1-negative) / effect on sc-EC cells (NKX6.1-positive/ISL-negative): PDBU 0.5 μM or TPPB 0.1 μM on S4d5, S5d1, S5d2
Procedure: In one experiment, effect of application of PDBU and gamma secretase inhibitor, XXI, was tested. In this experiment, three differentiation conditions were examined and compared: Version A protocol; Version B; Version B+XXI (both PDBU and XXI was applied from S4d5 to S5d2, and XXI continued to be applied throughout S5). FIG. 10B summarizes the percentages of ISL1-positive cells and ISL1-negative cells at S5c generated via different protocols, as measured by flow cytometry (exemplified in FIG. 10A). As shown in the figure, combined PKC activation and gamma secretase inhibition starting during S4 led to robust induction of ISL1-positive cells from about 65% to higher than 90%, whereas PKC activation alone led to about 80% ISL1-positive cells.
as §1

[4] = system: Stage 6 cells differentiated from human stem cells; experiment: Insulin content of generated cells; format: cell-based; conditions: comparison between protocols
[5] = system: S6d13 cells; experiment: In vitro glucose-stimulated insulin secretion response; format: cell-based, human
From the text: In one experiment, in vitro glucose-stimulated insulin secretion response of S6d13 cells generated by Version A and Version B protocols was examined.

[6] = system: S5c cells differentiated from human stem cells; experiment: SOX9 expression at the end of S5; format: cell-based; conditions: compared to Version A protocols
[7] = system: S5c cells differentiated from human stem cells; experiment: Single-cell RNA sequencing of S5c cells after stem cell differentiation; format: cell-based; conditions: compared to Version A protocol, PDBU S4d5 to S5d2
Procedure: as §2

[8] = target: EZH2 (Homo sapiens, UniProt Q15910); conditions: cited from earlier work
Sequence of EZH2 (Q15910 whole entry, species assumed): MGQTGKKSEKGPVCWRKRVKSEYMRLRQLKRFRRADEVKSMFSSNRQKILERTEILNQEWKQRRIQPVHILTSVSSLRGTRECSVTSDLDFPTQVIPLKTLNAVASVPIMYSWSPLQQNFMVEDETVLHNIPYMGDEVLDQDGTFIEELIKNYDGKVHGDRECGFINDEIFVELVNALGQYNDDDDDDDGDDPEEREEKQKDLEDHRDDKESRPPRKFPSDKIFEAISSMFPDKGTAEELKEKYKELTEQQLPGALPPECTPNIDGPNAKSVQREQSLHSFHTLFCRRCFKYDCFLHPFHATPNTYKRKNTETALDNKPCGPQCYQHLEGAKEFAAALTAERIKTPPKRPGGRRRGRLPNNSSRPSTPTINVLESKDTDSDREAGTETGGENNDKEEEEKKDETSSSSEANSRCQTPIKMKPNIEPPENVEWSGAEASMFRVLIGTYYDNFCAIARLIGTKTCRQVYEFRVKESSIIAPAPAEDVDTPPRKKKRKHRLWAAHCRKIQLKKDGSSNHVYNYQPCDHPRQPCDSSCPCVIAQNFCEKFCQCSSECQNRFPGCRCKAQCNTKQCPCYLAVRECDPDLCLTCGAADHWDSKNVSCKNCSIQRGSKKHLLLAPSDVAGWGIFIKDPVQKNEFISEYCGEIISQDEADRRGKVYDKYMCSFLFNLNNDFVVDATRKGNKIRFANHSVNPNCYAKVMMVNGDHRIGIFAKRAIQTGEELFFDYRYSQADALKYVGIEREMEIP
Sequence of EZH2 (O75530 whole entry partner, species assumed): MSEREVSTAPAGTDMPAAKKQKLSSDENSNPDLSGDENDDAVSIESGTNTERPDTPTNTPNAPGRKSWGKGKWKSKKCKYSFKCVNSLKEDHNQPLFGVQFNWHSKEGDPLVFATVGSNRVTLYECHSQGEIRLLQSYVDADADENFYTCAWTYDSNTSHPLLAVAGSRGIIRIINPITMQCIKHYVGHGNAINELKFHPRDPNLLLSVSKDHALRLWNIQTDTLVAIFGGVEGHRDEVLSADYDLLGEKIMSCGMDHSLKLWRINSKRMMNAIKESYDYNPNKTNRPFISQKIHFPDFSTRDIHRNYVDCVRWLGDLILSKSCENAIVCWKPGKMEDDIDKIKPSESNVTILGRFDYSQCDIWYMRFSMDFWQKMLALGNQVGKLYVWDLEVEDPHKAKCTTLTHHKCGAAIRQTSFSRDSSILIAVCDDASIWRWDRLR
Sequence of EZH2 (Q15022 whole entry partner, species assumed): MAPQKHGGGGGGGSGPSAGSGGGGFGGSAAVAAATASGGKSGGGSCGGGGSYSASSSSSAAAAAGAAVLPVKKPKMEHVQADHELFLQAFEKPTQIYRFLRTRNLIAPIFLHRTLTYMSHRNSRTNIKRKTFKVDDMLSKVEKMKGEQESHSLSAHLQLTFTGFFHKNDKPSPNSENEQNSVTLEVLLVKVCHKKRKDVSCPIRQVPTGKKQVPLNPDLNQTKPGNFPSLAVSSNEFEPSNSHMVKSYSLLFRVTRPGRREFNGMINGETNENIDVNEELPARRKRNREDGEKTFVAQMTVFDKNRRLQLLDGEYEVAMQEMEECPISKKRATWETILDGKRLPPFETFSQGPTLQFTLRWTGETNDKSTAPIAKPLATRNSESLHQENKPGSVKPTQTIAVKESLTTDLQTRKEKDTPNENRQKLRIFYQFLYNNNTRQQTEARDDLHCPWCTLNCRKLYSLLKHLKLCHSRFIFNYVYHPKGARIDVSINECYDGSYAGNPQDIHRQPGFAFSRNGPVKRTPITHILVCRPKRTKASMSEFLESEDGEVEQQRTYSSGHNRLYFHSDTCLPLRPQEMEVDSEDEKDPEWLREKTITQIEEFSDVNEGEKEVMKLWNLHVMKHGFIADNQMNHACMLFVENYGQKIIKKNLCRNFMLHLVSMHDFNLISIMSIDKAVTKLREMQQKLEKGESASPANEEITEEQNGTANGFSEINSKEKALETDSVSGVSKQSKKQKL

C[C@H](NC(=O)Cc1cc(F)cc(F)c1)C(=O)N[C@H]1N=C(c2ccccc2)c2ccccc2N(C)C1=O [XXI]
cell yield ([1]; XXI added to VA/TPPB at days S4d5, S5d1, S5d2): reduction in in cell yield

CCCC(=O)O[C@@H]1[C@@H](C)[C@@]2(O)[C@@H](C=C(CO)C[C@]3(O)C(=O)C(C)=C[C@@H]23)[C@@H]2C(C)(C)[C@]12OC(=O)CCC [Version B, phorbol 12,13-dibutyrate]
percentage of EC cells (VMAT1+/C-peptide−) ([2]; S6d9): less than 20% | percentage of δ cells (SST+/GCG−) ([2]; S6d9, listed as vB/S6-a): around 5% | percentage of δ cells (SST+/GCG−) ([2]; S6d9, listed as vB/S6-b): around 7% | percentage of δ cells (SST+/GCG−) ([2]; S6d9, listed as vB/S6-d): around 8% | percentage of C-peptide-positive, VMAT1-negative cells ([2]; S6d14): around 45% | percentage of EC cells (VMAT1+/C-peptide−) ([2]; S6d14): less than 20% | percentage of α cells (GCG+/SST−) ([2]; S6d14, listed as vB/S6-a): around 22% | percentage of δ cells (SST+/GCG−) ([2]; S6d14, listed as vB/S6-a): around 5% | percentage of α cells (GCG+/SST−) ([2]; S6d14, listed as vB/S6-b): around 22% | percentage of δ cells (SST+/GCG−) ([2]; S6d14, listed as vB/S6-b): around 5% | percentage of α cells (GCG+/SST−) ([2]; S6d14, listed as vB/S6-c): around 15% | percentage of α cells (GCG+/SST−) ([2]; S6d14, listed as vB/S6-d): around 15% | percentage of δ cells (SST+/GCG−) ([2]; S6d14, listed as vB/S6-d): around 8% | effect on alpha cells (ISL1-positive/NKX6.1-negative) [3]: increasing alpha cells | effect on sc-EC cells (NKX6.1-positive/ISL-negative) [3]: reducing sc-EC cells | percentage of ISL1-positive cells ([3]; Version A about 65%): about 80% | insulin content in cells [4]: comparable | insulin secretion in response to 20 mM glucose challenge as compared to 2.8 mM glucose challenge [5]: no clear increase in insulin secretion | responsiveness to glucose challenges (GSIS) [5]: relatively low responsiveness to glucose challenges | cells expressing SOX9 [6]: increased cells expressing SOX9 | percentage of cells expressing CHGA [7]: comparable percentage | percentage of cells expressing DDC (marker of enterochromaffin cells) [7]: much reduced percentage | percentage of cells expressing ISL1 [7]: comparable percentage

CC(C)[C@H]1C(=O)N[C@H](CO)Cc2cc(NC(=O)/C=C/C=C/c3ccc(C(F)(F)F)cc3)ccc2N1C [VA/TPPB, ((2S,5S)-(E,E)-8-(5-(4-(Trifluoromethyl)phenyl)-2,4-pentadienoylamino)benzolactam)]
effect on alpha cells (ISL1-positive/NKX6.1-negative) [3]: increasing alpha cells | effect on sc-EC cells (NKX6.1-positive/ISL-negative) [3]: similarly effective as VA/PDBU at reducing sc-EC cells | increase in yield of total cells as compared to VA/PDBU ([1]; TPPB 0.1 μM on S4d5, S5d1, S5d2): more than 2 fold

CC[C@H](C)n1cc(C)c2c(C(=O)NCc3c(C)cc(C)[nH]c3=O)cc(-c3ccc(N4CCNCC4)nc3)cc21 [GSK126]
selectivity for EZH2 over EZH1 [8]: 150 fold

CCCc1cc(C)[nH]c(=O)c1CNC(=O)c1cc(-c2ccc(N3CCN(C(C)C)CC3)nc2)cc2c1cnn2C(C)C [UNC1999]
selectivity relative to GSK126 [8]: less selective
